Reference: a melting point compilation (Tetko et al.)

Row | SMILES | melting point [°C]
1 | O=C(O)c1nn(-c2ccc(F)cc2)c2c1CCCC2 | 209 to 211
2 | O=C(c1ccc(Br)cc1)c1cccnc1 | 124 to 126
3 | NC(=O)C1CCC1 | 151 to 153
4 | NNC(=O)c1cc2sccc2cn1 | 204 to 206
5 | O=C(CCl)N1CCC(c2nc3ccccc3s2)CC1 | 59 to 61
6 | CC(C)(C)OC(=O)NCc1ccc(C(=O)O)cc1 | 164 to 166
7 | Cc1nnnn1-c1ccc(F)c(N)c1 | 156 to 158
8 | O=C(O)c1ccccc1OC1CCCCC1 | 86 to 88
9 | N#Cc1ccccc1SCC(=O)O | 143 to 145
10 | O=C(O)CNc1ccc(Cl)cc1 | 142 to 144
11 | Nc1nnc(C2COc3ccccc3O2)o1 (stereo not drawn) | 210 to 212
12 | OCc1ccc(Cc2ccccc2)cc1 | 37 to 39
13 | Cc1ccccc1NC(=O)C(C)Cl (stereo not drawn) | 112 to 114
14 | NC1CCCC(C(=O)NC2CC2)C1 (stereo not drawn) | 97 to 99
15 | NC(=NO)c1ccccc1Cl | 87 to 91
16 | Cc1ccccc1-c1noc(CC#N)n1 | 79 to 83
17 | Fc1ccc(-n2nc(CCl)c3c2CCC3)cc1 | 101 to 103
18 | N#CCCCn1cc(C(=O)O)nn1 | 164 to 166
19 | COc1ccc(CNC(=O)OC(C)(C)C)c(OC)c1 | 59 to 61
20 | CC1CC(C)(C)NC1=O (stereo not drawn) | 77 to 79
21 | CC(=O)Nc1cccc(S(=O)(=O)Cl)c1 | 78 to 80
22 | ClCc1coc(-c2ccc(Cl)cc2)n1 | 91 to 93
23 | Nc1ccc2c(c1)N1CCN=C1S2 | 201 to 204
24 | O=C(O)CN1C(=O)CNC1=O | 185 to 187
25 | CNC(=O)c1ccc(C(=O)O)cn1 | 263 to 265

Row | SMILES | melting point [°C]
26 | COCc1c(C(=O)O)oc2ccccc12 | 119 to 121
27 | O=C(O)c1c[nH]c2cc(F)ccc12 | 228 to 230
28 | NC(=O)C1CC2CCCCC2N1 (stereo not drawn) | 123 to 125
29 | CC(O)C(NS(=O)(=O)c1cccs1)C(=O)O (stereo not drawn) | 183 to 185
30 | O=C(O)CCSc1ccc(F)cc1 | 76 to 78
31 | O=C(O)c1ccnc(SCC(F)(F)F)c1 | 104 to 106
32 | N#Cc1ccc(N2CCNCC2)c(F)c1 | 84 to 86
33 | COc1ccccc1C(N)(C(=O)O)C(F)(F)F (stereo not drawn) | 97 to 99
34 | O=C1CC(c2ccc(Cl)cc2)N1 (stereo not drawn) | 90 to 92
35 | O=C(O)CCCOc1ccccc1Cl | 84 to 86
36 | CC(C(=O)O)N1C(=O)C2CC=CCC2C1=O (stereo not drawn) | 123 to 125
37 | NC(=O)CCc1nnc(S)n1Cc1ccco1 | 204 to 206
38 | Nc1nnc(Cc2ccsc2)s1 | 177 to 179
39 | CC(Cl)C(=O)Nc1nc2ccc(F)cc2s1 (stereo not drawn) | 126 to 128
40 | COc1ccc(-c2cc(N)ccc2OC(F)F)cc1 | 131 to 135
41 | O=C(O)c1nn(-c2ccccc2)c2c1CCC2 | 179 to 181
42 | CCOC(=O)CN(C(=O)CCl)c1ccccc1 | 130 to 135
43 | CCOc1ccc(N2CC(C(=O)O)CC2=O)cc1 (stereo not drawn) | 133 to 137
44 | COC(=O)c1ccc(Cl)c(N)c1 | 81 to 83
45 | CC(=O)Nc1ccccc1OCc1ccc(C(=O)O)o1 | 179 to 181
46 | CCNc1ncc(C(=O)O)s1 | 187 to 189
47 | COc1ccc(C(C)=O)cc1CN1CCCCC1 | 54 to 56
48 | COC(=O)Nc1cccc(C(=O)O)c1 | 229 to 231
49 | Cc1sc(N)nc1-c1ccc2c(c1)CCCO2 | 209 to 211

Second part, the compound after the results:

Row | melting point [°C] | SMILES
50 | 157 to 159 | O=C(O)CNS(=O)(=O)c1cc(C(F)(F)F)ccc1Cl
51 | 117 to 119 | O=C(O)CCC(=O)c1cc(Cl)sc1Cl
52 | 81 to 83 | COc1ccc(SCCC(=O)O)cc1
53 | 117 to 119 | Cc1cccc(C)c1CC(=O)O
54 | 274 to 276 | CN1CC(=O)Nc2cnccc21
55 | 111 to 113 | O=[N+]([O-])c1ccc(O)c(Br)c1
56 | 177 to 179 | Cc1cc(N)n(C2CCOCC2)n1
57 | 139 to 141 | Nc1ncc(Cc2c(Cl)cccc2Cl)s1
58 | 33 to 37 | CCOc1ccc(C(C)=O)cc1CN1CCOCC1
59 | 112 to 114 | ClCc1nc(Cl)c2cnn(-c3ccccc3)c2n1
60 | 35 to 41 | Cc1nn(-c2ccccc2)c(Cl)c1CCl
61 | 73 to 75 | OC1CCCOc2cc(Br)ccc21 (stereo not drawn)
62 | 139 to 141 | COc1ccc(N)cc1-n1cnnn1
63 | 109 to 111 | CC1=NN(C)C(=O)C1
64 | 87 to 89 | CC(C)C[C@H](NC(=O)OC(C)(C)C)C(=O)O
65 | 108 to 110 | Cc1nn2cc(CCCO)cnc2c1C
66 | 126 to 128 | Cc1ccc(OCCCC(=O)Nc2ccc(C#N)cc2)cc1
67 | 254 to 256 | O=C(COc1ccccc1)Nc1ccc(O)cc1C(=O)O
68 | 113 to 115 | Nc1ccc(CCC(=O)O)nc1
69 | 73 to 75 | CCOC(=O)Nc1ccc(N)cc1
70 | 166 to 168 | Nc1ccc2oc(-c3ccccc3F)nc2c1
71 | 227 to 230 | Cc1ccc(N)cc1S(=O)(=O)Nc1ccc(SC(F)F)cc1
72 | 176 to 178 | NC(=O)c1ncccc1N
73 | 213 to 215 | CN(C)CCn1nnnc1S
